Assay results taken from patent US4707475A, “Agent for lowering serum prolactin levels” (priority 1985, dated 1987).

Legend:
[1] = tested on: dopamine autoreceptors (DA-autoreceptors); conditions: cited from earlier work; for selectivity as DA-autoreceptor agonist: compared with B-HT 920, literature
DA-receptors = conditions: cited from earlier work; for action as DA agonist: Gudelsky et al.
prolactin = conditions: Gudelsky 1983; cited from earlier work
[2] = tested on: endogenous dopamine synthesis in the brain; conditions: in vivo, Anden et al. 1983; cited from earlier work
prolactin level = assay: Prolactin level in blood of 6 healthy male subjects after 150 μg B-HT 920 (PROLRIA-100 radioimmunological method); format: in vivo, healthy male subjects (human); set-up: unit not given here
Experimental: The compound B-HT 920 is tested for its effect on PRL-reduction as follows. The tests are carried out with 6 healthy male subjects ranging in age from 24 to 34, each subject being given 150 μg of B-HT 920. Blood samples are taken from each subject at intervals of 0, 1, 2, 3 and 5 hours. The prolactin level in the sample is determined by the known PROLRIA-100 radioimmunological method of the National Insitute of the Radioelements, 6220 Fleurs, Belgium. The following table contains the results found for each subject at the 1 hour intervals shown.

prolactin (PRL) = assay: Lowering of blood and serum levels of prolactin (general statement); conditions: in vivo
[3] = Tolerability (general statement); conditions: in vivo

Question: For `CN1CCc2cccc3c2[C@H]1Cc1ccc(O)c(O)c1-3` [apomorphine], which “selectivity as DA-autoreceptor agonist” value [1] is on record?
Answer: The value was “not selectively active as DA-autoreceptor agonists”.

Question: And the “action on DA-receptors and DA-autoreceptors” value (DA-receptors; well known)?
Answer: The value was “acts both on DA-receptors and also on DA-autoreceptors”.

Question: Which prolactin inhibiting activity (prolactin) does the source give for `CN(C)C1CCc2cc(O)c(O)cc2C1` (stereo not shown) [TL-99] here?
Answer: Its prolactin inhibiting activity is “prolactin inhibiting activity”.

Question: And the “selectivity as DA-autoreceptor agonist” value [1]?
Answer: The value was “not selectively active as DA-autoreceptor agonists”.

Question: What about the “action as DA agonist” value (DA-receptors) of the same compound?
Answer: The value was “act preferentially as DA agonists”.

Question: And the postsynaptic activity (DA-receptors; effect on the DA-receptors, Pastor et al. 1983)?
Answer: Its postsynaptic activity is “possibly has a postsynaptic activity”.

Question: Which “effect on endogenous dopamine synthesis” value [2] does the source give for `C=CCN1CCc2nc(N)sc2CC1.Cl.Cl` [B-HT 920, 6-allyl-2-amino-5,6,7,8-tetrahydro-4H-thiazolo-[4,5-d]azepine dihydrochloride] here?
Answer: The value was “inhibits endogenous dopamine synthesis in the brain”.

Question: What about the “effect on dopamine autoreceptors” value ([1]; Anden et al. 1982) of the same compound?
Answer: The value was “selective agonistic effect on dopamine autoreceptors”.

Question: And the prolactin level (prolactin level; subject 1, 1 hour)?
Answer: Its prolactin level is 2.56.

Question: What about the prolactin level (prolactin level; subject 1, 2 hours) of the same compound?
Answer: The prolactin level was 0.52.

Question: And the prolactin level (prolactin level; subject 1, 3 hours)?
Answer: Its prolactin level is 2.52.

Question: And the prolactin level (prolactin level; subject 1, 5 hours)?
Answer: The prolactin level was 3.26.

Question: And the prolactin level (prolactin level; subject 1, time 0)?
Answer: The prolactin level was 3.33.

Question: And the prolactin level (prolactin level; subject 2, 1 hour)?
Answer: The prolactin level was 2.85.

Question: And the prolactin level (prolactin level; subject 2, 2 hours)?
Answer: Its prolactin level is 0.69.

Question: What about the prolactin level (prolactin level; subject 2, 3 hours) of the same compound?
Answer: The prolactin level was 0.52.

Question: What about the prolactin level (prolactin level; subject 2, 5 hours) of the same compound?
Answer: The prolactin level was 2.25.

Question: What about the prolactin level (prolactin level; subject 2, time 0) of the same compound?
Answer: The prolactin level was 3.86.

Question: And the prolactin level (prolactin level; subject 3, 1 hour)?
Answer: The prolactin level was 4.15.

Question: And the prolactin level (prolactin level; subject 3, 2 hours)?
Answer: The prolactin level was 4.92.

Question: And the prolactin level (prolactin level; subject 3, 5 hours)?
Answer: Its prolactin level is 1.85.

Question: And the prolactin level (prolactin level; subject 3, time 0)?
Answer: Its prolactin level is 4.22.

Question: What about the prolactin level (prolactin level; subject 4, 1 hour) of the same compound?
Answer: The prolactin level was 4.52.

Question: What about the prolactin level (prolactin level; subject 4, 2 hours) of the same compound?
Answer: Its prolactin level is 7.89.

Question: And the prolactin level (prolactin level; subject 4, 5 hours)?
Answer: Its prolactin level is 4.11.

Question: What about the prolactin level (prolactin level; subject 4, time 0) of the same compound?
Answer: The prolactin level was 5.04.

Question: And the prolactin level (prolactin level; subject 5, 1 hour)?
Answer: The prolactin level was 7.19.

Question: And the prolactin level (prolactin level; subject 5, 2 hours)?
Answer: The prolactin level was 1.37.

Question: What about the prolactin level (prolactin level; subject 5, 3 hours) of the same compound?
Answer: The prolactin level was 3.43.

Question: What about the prolactin level (prolactin level; subject 5, 5 hours) of the same compound?
Answer: Its prolactin level is 2.89.

Question: And the prolactin level (prolactin level; subject 5, time 0)?
Answer: The prolactin level was 5.00.

Question: What about the prolactin level (prolactin level; subject 6, 1 hour) of the same compound?
Answer: The prolactin level was 7.59.

Question: What about the prolactin level (prolactin level; subject 6, 2 hours) of the same compound?
Answer: Its prolactin level is 1.57.

Question: What about the prolactin level (prolactin level; subject 6, 5 hours) of the same compound?
Answer: The prolactin level was 4.33.

Question: What about the prolactin level (prolactin level; subject 6, time 0) of the same compound?
Answer: The prolactin level was 6.59.

Question: What does the source list for `C=CCN1CCc2nc(N)sc2CC1` [compound A, 6-allyl-2-amino-5,6,7,8-tetrahydro-4H-thiazolo-[4,5-d]azepine]?
Answer: effect on blood and serum levels of prolactin (PRL) (prolactin (PRL)): lower the blood and serum levels of prolactin (PRL); tolerability [3]: well tolerated

Question: For `CCCN1CCCC(c2cccc(O)c2)C1` (stereo not shown) [3-PPP], which prolactin inhibiting activity (prolactin) is on record?
Answer: Its prolactin inhibiting activity is “prolactin inhibiting activity”.

Question: What about the “selectivity as DA-autoreceptor agonist” value [1] of the same compound?
Answer: The value was “not selectively active as DA-autoreceptor agonists”.

Question: And the “action as DA agonist” value (DA-receptors)?
Answer: Its value is “act preferentially as DA agonists”.
